Reference: US6576596B1, “Substituted 2-benzoyl-cyclohexan-1,3-diones with herbicidal effect” (BASF Aktiengesellschaft, priority 1997, dated 2003)

Assays:
Format in all cases: in vivo
Echinochloa crus galli = test: greenhouse herbicidal test, post-emergence treatment; conditions: 0.125 or 0.0625 kg/ha (of a.s.), Echinochloa crus galli (barnyardgrass)
Text: (§1) The culture containers used were plastic flowerpots containing loamy soil with approximately 3.0% of humus as the substrate. The seeds of the test plants were sown separately for each species.
(§2) For the post-emergence treatment, the test plants were first grown to a plant height of 3 to 15 cm, depending on the plant habit, and only then treated with the active compounds which had been suspended or emulsified in water. The test plants for this purpose were either sown directly and grown in the same containers, or they were first grown separately as seedlings and transplanted into the test containers a few days prior to treatment. The rate of application for the post-emergence treatment was 0.125.or 0.0625 kg/ha of a.s. (active substance).
(§3) Depending on the species, the plants were kept at 10-25° C. or 20-35° C. The test period extended over 2 to 4 weeks. During this time, the plants were tended, and their response to the individual treatments was evaluated.
(§4) Evaluation was carried out using a scale from 0 to 100. 100 means no emergence of the plants, or complete destruction of at least the aerial parts, and 0 means no damage, or normal course of growth.
(§5) The plants used in the greenhouse experiments belonged to the following species: […]

Chenopodium album = test: as above; conditions: 0.125 or 0.0625 kg/ha (of a.s.), Chenopodium album (lambsquarters)
Text: as §1, §2, §3, §4, §5

Sinapis alba = test: as above; conditions: 0.125 or 0.0625 kg/ha (of a.s.), Sinapis alba (white mustard)
Text: as §1, §2, §3, §4, §5

Zea mays = test: greenhouse test, post-emergence treatment, crop tolerance; conditions: 0.125 or 0.0625 kg/ha (of a.s.)
Text: as §1, §2, §3, §4, §5

CCON=Cc1c(S(C)(=O)=O)ccc(C(=O)C2C(=O)CC(C)(C)CC2=O)c1Cl [Compound 2.07, 2-(2-Chloro-3-ethoxyiminomethyl-4-methylsulfonylbenzoyl)-5,5-dimethyl-1,3-cyclohexanedione]
herbicidal activity against harmful plants (Echinochloa crus galli): very good activity | herbicidal activity against harmful plants (Chenopodium album): very good activity | herbicidal activity against harmful plants (Sinapis alba): very good activity | tolerance in crop plant maize (Zea mays): well tolerated
